These are literature values, as cited in US12472158B2, “Methods of treating trigeminal nerve pain” (Vanderbilt University, priority 2019, dated 2025).

Where only a bound is given, the exact number is not on record here.

The conditions of data set [1]: lidocaine alone (active control group); medical literature and expert opinion.
In data set [2] the test system is contraction of the nictitating membrane in cats. As to conditions: i.v., dose giving 50% reduction of the nictitating membrane contraction.
Data set [3] concerns the target T1, α-2A adrenergic receptor (Homo sapiens, UniProt P08913).
T1 sequence (P08913 1-465): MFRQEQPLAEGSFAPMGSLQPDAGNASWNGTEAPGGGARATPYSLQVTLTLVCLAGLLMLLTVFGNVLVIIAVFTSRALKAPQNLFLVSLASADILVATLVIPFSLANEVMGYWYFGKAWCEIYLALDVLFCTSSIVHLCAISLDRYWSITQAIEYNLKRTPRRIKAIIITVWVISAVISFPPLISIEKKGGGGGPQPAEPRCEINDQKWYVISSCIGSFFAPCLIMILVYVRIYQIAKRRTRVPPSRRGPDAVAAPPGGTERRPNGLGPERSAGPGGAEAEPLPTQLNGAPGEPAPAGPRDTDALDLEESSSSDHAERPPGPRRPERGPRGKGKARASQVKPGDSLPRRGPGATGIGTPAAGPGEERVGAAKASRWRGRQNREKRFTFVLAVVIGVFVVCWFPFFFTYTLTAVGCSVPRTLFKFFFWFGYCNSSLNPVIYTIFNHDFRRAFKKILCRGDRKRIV
As to conditions: α-2A vs α-2B and α-2C.

The conditions of data set [4]: among the alpha-2 agonists.
The subject of data set [5] is rat model.
Data set [6] has as its system goat model. As to conditions: for duration of antinociceptive effect: intrathecal.
Data set [7] relates to subarachnoid space. The note with it: 75 mcg in 15 μl saline, intrathecal route.

Regarding `CCN(CC)CC(=O)Nc1c(C)cccc1C` [lidocaine], the “mean duration of pain relief” value in data set [1] is “approximately 140 minutes”.

As for `Cl.N=C(N)NC(=O)Cc1c(Cl)cccc1Cl` [guanfacine, N-amidino-2-(2,6-dichlorophenyl) acetamide], the “Reduction of the neck sympathicus stimulus ED50” value in data set [2] is 0.3 mg/kg. The “affinity for α-2A adrenergic receptor compared to α-2B and α-2C adrenergic receptor” value in data set [3] is 15- to 20 fold. Besides, the rate of sedation entry in data set [4] is recorded as “lowest rate of sedation”. In addition, the elimination half-life (in vivo) is given as roughly 17 h. For the same compound, the oral bioavailability result (oral) is given as “around 80%”. For the same compound, the renal excretion (share of elimination) is reported as roughly 50%. In addition, in data set [5] (compared to clonidine), the “rate of elimination from spinal cord tissue” value is “lower rate of elimination”. Also, the “duration of anti-nociceptive effect” value in data set [5] (rat model, intrathecal, both 25 mcg and 50 mcg) is “greater than 18 h”. Also, the “elimination from spinal cord tissue” value in data set [6] (compared with clonidine) is given as “slower elimination”. For the same compound, the “duration of antinociceptive effect” value in data set [6] is given as 8 h. For the same compound, in data set [7], the “toxicity in the subarachnoid space” value is reported as “nontoxic”.

As for `Clc1cccc(Cl)c1N=C1NCCN1` [clonidine], the “time for anti-nociceptive effect to decline to baseline” value in data set [5] (rat model, injection 50 mcg) was no more than 4 h. Further, in data set [6], the “duration of antinociceptive effect” value is 5 h.

Take `Cc1cccc(C)c1CC(=O)NC(=N)N` [2,6-dimethylphenyl-acetyl-guanidine]: the “Reduction of the neck sympathicus stimulus ED50” value in data set [2] is 1.0 mg/kg.
